This note sets out measurements from patent US20060264460A1 (Wyeth, priority 2005, published 2006).

Each structure is given as a SMILES string.

The target of the first assay is T1, human Cot/Tpl2 kinase (Homo sapiens, UniProt P41279).
T1 construct: human Cot/Tpl2 kinase construct encoding residues 30-398; 6His (N); made in house; host or cells: Sf9 insect cells, baculovirus system (BD Biosciences)
T1 sequence (P41279 30-398): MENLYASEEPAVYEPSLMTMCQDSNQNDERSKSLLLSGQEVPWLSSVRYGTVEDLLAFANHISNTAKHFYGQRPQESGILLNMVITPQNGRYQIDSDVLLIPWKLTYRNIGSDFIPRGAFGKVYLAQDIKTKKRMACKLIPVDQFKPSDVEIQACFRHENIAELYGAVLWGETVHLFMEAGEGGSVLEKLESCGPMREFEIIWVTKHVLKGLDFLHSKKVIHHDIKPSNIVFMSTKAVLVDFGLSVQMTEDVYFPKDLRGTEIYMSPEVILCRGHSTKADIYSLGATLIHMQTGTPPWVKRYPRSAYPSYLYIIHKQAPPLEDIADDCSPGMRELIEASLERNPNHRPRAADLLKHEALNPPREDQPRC
Briefly: Tpl2/Cot kinase assay: GST-MEK1 phosphorylation detected by ELISA (DELFIA Eu). Format: biochemical. The settings on record: 0.4 nM Tpl2, 35 nM GST-MEK1, 50 uM ATP, 1 h at 30° C. In short, it runs like this: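 His-tagged human Tpl2 from Sf9 cells, Ni-affinity and size-exclusion purified (monomer). 0.4 nM Tpl2 with 35 nM GST-MEK1, 50 uM ATP, MOPS pH 7.2, 1% DMSO, 1 h at 30° C; EDTA stop. MEK1 Ser217/221 phosphorylation detected by anti-phospho-MEK1 and Eu-labelled secondary ELISA; IC50 fitted.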
For orientation: ELISA stands for enzyme-linked immunosorbent assay.
The term IC50 denotes the concentration needed to halve the response being measured. The low end stands for greater potency in that assay, the high end for weaker potency in that assay. `CC(C)c1nc[nH]c1CNc1cc(Br)c2ncc(C#N)c(Nc3ccc(F)c(Cl)c3)c2c1` [Example 115, 8-bromo-4-(3-chloro-4-fluorophenylamino)-6-((4-isopropyl-1H-imidazol-5-yl)methylamino)quinoline-3-carbonitrile] displayed an IC50 of 130 nM.

`CN(C)C(=O)c1cc(NCc2cccnc2)cc2c(Nc3cccc(Cl)c3)c(C#N)cnc12` [Example 71, 4-(3-chlorophenylamino)-3-cyano-N,N-dimethyl-6-(pyridin-3-ylmethylamino)quinoline-8-carboxamide] showed an IC50 of 400 nM.

In turn, `C[C@@H](Nc1ccc2ncc(C#N)c(Nc3ccc(F)c(Cl)c3)c2c1)c1ccccn1` [Example 172, (R)-4-(3-chloro-4-fluorophenylamino)-6-(1-(pyridin-2-yl)ethylamino)quinoline-3-carbonitrile] had an IC50 of 84 nM. This IC50 lies about 4.8-fold lower than the previous one. Regarding `N#Cc1cnc2c(Cl)cc(NCC3=NCCN3)cc2c1Nc1ccc(F)c(Cl)c1` [Example 204, 8-chloro-4-[(3-chloro-4-fluorophenyl)amino]-6-[(4,5-dihydro-1H-imidazol-2-ylmethyl)amino]quinoline-3-carbonitrile], the IC50 stood at 2600 nM. In turn, `N#Cc1cnc2ccc(NCc3cccc(F)c3)cc2c1Nc1ccc(F)c(Cl)c1` [Example 145, 6-(3-fluorobenzylamino)-4-(3-chloro-4-fluorophenylamino)quinoline-3-carbonitrile] had an IC50 of 2100 nM. In turn, `N#Cc1cnc2ccc(NCc3nccs3)cc2c1Nc1ccc(F)c(Cl)c1` [Example 8, 4-(3-Chloro-4-fluoro-phenylamino)-6-[(thiazol-2-ylmethyl)-amino]-quinoline-3-carbonitrile] returned an IC50 of 31 nM. The molecule `N#Cc1cnc2c(CCC(=O)CO)cc(N)cc2c1Nc1ccc(F)c(Cl)c1` [Example 309, 6-amino-4-[(3-chloro-4-fluorophenyl)amino]-8-(4-hydroxy-3-oxobutyl)quinoline-3-carbonitrile] registered an IC50 of 7100 nM. Against the preceding molecule, the IC50 is about 230-fold higher.

Molecule `N#Cc1cnc2cc(OCCBr)c(NCc3cnc[nH]3)cc2c1Nc1ccc(F)c(Cl)c1` [Example 166, 6-((1H-imidazol-5-yl)methylamino)-7-(2-bromoethoxy)-4-(3-chloro-4-fluorophenylamino)quinoline-3-carbonitrile] came in with an IC50 above 40000 nM. Consider `N#Cc1cnc2ccc(NCc3cccc(S(N)(=O)=O)c3)cc2c1Nc1ccc(F)c(Cl)c1` [Example 168, 3-((4-(3-chloro-4-fluorophenylamino)-3-cyanoquinolin-6-ylamino)methyl)benzenesulfonamide], for which inhibition was half-maximal at 150 nM (IC50). In other words, the sub-micromolar range. `N#Cc1cnc2c(Cl)cc(NCc3cn4ccccc4n3)cc2c1Nc1ccc(F)c(Cl)c1` [Example 187, 6-((H-imidazo[1,2-a]pyridin-2-yl)methylamino)-8-chloro-4-(3-chloro-4-fluorophenylamino)quinoline-3-carbonitrile] yielded an IC50 of 130 nM.

As for `N#Cc1cnc2c(Cl)cc(NCCn3cc(CCO)nn3)cc2c1Nc1ccc(F)c(Cl)c1` [Example 213, 8-chloro-4-[(3-chloro-4-fluorophenyl)amino]-6-({2-[4-(2-hydroxyethyl)-1H-1,2,3-triazol-1-yl]ethyl}amino)quinoline-3-carbonitrile], the IC50 worked out at 1500 nM. The same measure, in the same setting: next, `N#Cc1cnc2c(C(F)(F)F)cc(NCc3cncs3)cc2c1Nc1ccc(F)c(Cl)c1` [Example 239, 4-[(3-chloro-4-fluorophenyl)amino]-6-[(1,3-thiazol-5-ylmethyl)amino]-8-(trifluoromethyl)quinoline-3-carbonitrile]: 780 nM; `N#Cc1cnc2ccc(NCc3ccc(CO)o3)cc2c1Nc1ccc(F)c(Cl)c1` [Example 9, 4-(3-Chloro-4-fluoro-phenylamino)-6-[(5-hydroxymethyl-furan-2-ylmethyl)-amino]-quinoline-3-carbonitrile]: 211 nM. The molecule `CCOc1cc2ncc(C#N)c(Nc3ccc(F)c(Cl)c3)c2cc1NCc1cnc[nH]1` [Example 165, 6-((1H-imidazol-5-yl)methylamino)-4-(3-chloro-4-fluorophenylamino)-7-ethoxyquinoline-3-carbonitrile] showed a half-inhibitory concentration (IC50) above 40000 nM. Take `N#Cc1cnc2ccc(NC(=O)c3cccnc3)cc2c1Nc1ccc(F)c(Cl)c1` [Example 2, N-[4-(3-Chloro-4-fluoro-phenylamino)-3-cyano-quinolin-6-yl]-nicotinamide]: the IC50 came to 23900 nM.

Staying with this assay, now noted: Table 2; Tpl2/Cot kinase, GST-MEK1 substrate, 50 uM ATP.
Turning to `CN1CCCN(CCCn2cc(CNc3cc(Br)c4ncc(C#N)c(Nc5ccc(F)c(Cl)c5)c4c3)nn2)CC1` [Example 624], the half-inhibitory concentration (IC50) was found to be 70 nM. This lies in the double-digit nanomolar range. For the molecule `CC(=O)N1CCC(n2cc(CNc3cc(Br)c4ncc(C#N)c(Nc5ccc(F)c(Cl)c5)c4c3)nn2)CC1` [Example 547], the IC50 was found to be 6.1 nM. For `N#Cc1cnc2ccc(NCc3ccc4c(c3)OCO4)cc2c1Nc1cccc(Cl)c1` [Example 346], half-maximal inhibition (IC50) required 600 nM.

Turning to `COCCOc1ccc(CNc2ccc3ncc(C#N)c(Nc4ccc(F)c(Cl)c4)c3c2)cc1Br` [Example 371], the IC50 is 380 nM. With `CN1CCN(CCCn2cc(CNc3cc(Br)c4ncc(C#N)c(Nc5ccc(F)c(Cl)c5)c4c3)nn2)CC1` [Example 626], the IC50 is 29 nM. Against the preceding molecule, the IC50 is about 13-fold lower. For the molecule `CCN1CCC(Cn2cc(CNc3cc(Br)c4ncc(C#N)c(Nc5ccc(F)c(Cl)c5)c4c3)nn2)CC1` [Example 566], half-maximal inhibition (IC50) was put at 40 nM. In turn, `N#Cc1cnc2c(Cl)cc(NCC(=O)NCc3cccnc3)cc2c1Nc1ccc(F)c(Cl)c1` [Example 598] had an IC50 of 200 nM. As to `N#Cc1cnc2ccc(NCCN3CCOCC3)cc2c1Nc1ccc(F)c(Cl)c1` [Example 337], it took 1000 nM to reach half-maximal inhibition (IC50).

In the case of `CSCCn1cc(CNc2cc(Br)c3ncc(C#N)c(Nc4ccc(F)c(Cl)c4)c3c2)nn1` [Example 508], 82 nM corresponded to half-maximal inhibition (IC50). In turn, `N#Cc1cnc2c(Cl)cc(NCc3cn(CCc4ccccn4)nn3)cc2c1Nc1ccc(F)c(Cl)c1` [Example 563] came in with an IC50 of 25 nM. As to `CC(CNc1cc(Cl)c2ncc(C#N)c(Nc3ccc(F)c(Cl)c3)c2c1)c1ccncc1` (stereo not shown) [Example 639], half-maximal inhibition (IC50) was put at 200 nM. In turn, `N#Cc1cnc2c(Cl)cc(NCc3cn(Cc4ccncc4)cn3)cc2c1Nc1ccc(F)c(Cl)c1` [Example 622] returned an IC50 of 5.3 nM. For `CN(C)CC#Cc1ncn(COCc2ccccc2)c1CNc1cc(Cl)c2ncc(C#N)c(Nc3ccc(F)c(Cl)c3)c2c1` [Example 460], the half-maximal inhibitory concentration (IC50) was 2000 nM. The same measure, in the same setting: for `CC(C)N1CCC(Cn2cc(CNc3cc(Br)c4ncc(C#N)c(Nc5ccc(F)c(Cl)c5)c4c3)nn2)CC1` [Example 567] the value was 29 nM. With `N#Cc1cnc2c(Cl)cc(NCc3cn(CC(F)(F)F)nn3)cc2c1Nc1ccc(F)c(Cl)c1` [Example 491], half-maximal inhibition (IC50) was put at 23 nM.

For `Cn1ncc(Br)c1CNc1cc(Br)c2ncc(C#N)c(Nc3ccc(F)c(Cl)c3)c2c1` [Example 456], 1000 nM corresponded to half-maximal inhibition (IC50). Compared with the last molecule, the IC50 is about 43-fold higher. `N#Cc1cnc2c(Cl)cc(NCc3cn(CCN4CCCC4)nn3)cc2c1Nc1ccc(F)c(Cl)c1` [Example 515] came in with an IC50 of 40 nM. Against the preceding molecule, the IC50 is about 25-fold lower. Molecule `N#Cc1cnc2c(Cl)cc(NCc3cn(CCOC(N)=O)nn3)cc2c1Nc1ccc(F)c(Cl)c1` [Example 599] yielded an IC50 of 5.9 nM.

Staying with this assay, now noted: Tpl2/Cot kinase, GST-MEK1 substrate, 50 uM ATP.
The molecule `N#Cc1cnc2c(Cl)cc(NCc3cn(-c4ccnc(N5CCCCC5)n4)nn3)cc2c1Nc1ccc(F)c(Cl)c1` [Example 747] came in with an IC50 of 320 nM. `N#Cc1cnc2c(Br)cc(NCc3cn(CCOC(N)=O)nn3)cc2c1Nc1ccc(F)c(Cl)c1` [Example 833] registered an IC50 of 9 nM. Against the preceding molecule, the IC50 is about 36-fold lower. Same read-out and setting: next, `CN1CC(CCn2cc(CNc3cc(Cl)c4ncc(C#N)c(Nc5ccc(F)c(Cl)c5)c4c3)nn2)N(C)C1=O` (stereo not shown) [Example 790]: 6.1 nM; `CN1CCCC1CCNC(=O)Cn1cc(CNc2cc(Cl)c3ncc(C#N)c(Nc4ccc(F)c(Cl)c4)c3c2)nn1` (stereo not shown) [Example 817]: 6.9 nM. Still for that read-out and setting: next, `CC(C)NC(=O)NCCCn1cc(CNc2cc(Cl)c3ncc(C#N)c(Nc4ccc(F)c(Cl)c4)c3c2)nn1` [Example 908]: 1 nM; `CC1(C)OC[C@H](CNc2cc(Cl)c3ncc(C#N)c(Nc4ccc(F)c(Cl)c4)c3c2)O1` [Example 812]: 200 nM; `CC(=O)N1CCC(Nc2cc(Cl)c3ncc(C#N)c(Nc4ccc(F)c(Cl)c4)c3c2)CC1` [Example 873]: 660 nM. `C[S+]([O-])Cn1cc(CNc2cc(Br)c3ncc(C#N)c(Nc4ccc(F)c(Cl)c4)c3c2)nn1` (stereo not shown) [Example 703] registered a concentration for half-maximal inhibition (IC50) of 120 nM. On to `CC(C)(C)OC(=O)N1CCCC1Cn1cc(CNc2cc(Cl)c3ncc(C#N)c(Nc4ccc(F)c(Cl)c4)c3c2)nn1` (stereo not shown) [Example 716], for which half-maximal inhibition (IC50) was put at 320 nM. Compared with the last molecule, the IC50 is about 2.7-fold higher. `CC(C)(C)OC(=O)N1CCC(CCn2cc(CNc3cc(Br)c4ncc(C#N)c(Nc5ccc(F)c(Cl)c5)c4c3)nn2)CC1` [Example 675] came in with an IC50 of 130 nM. The molecule `N#Cc1cnc2c(Br)cc(NCc3cn(Cc4cncnc4)nn3)cc2c1Nc1ccc(F)c(Cl)c1` [Example 880] gave an IC50 of 2.5 nM. This IC50 is about 52-fold lower than that of the molecule before. Take `CCOC(=O)C1CC1CNc1cc(Cl)c2ncc(C#N)c(Nc3ccc(F)c(Cl)c3)c2c1` (stereo not shown) [Example 884]: the IC50 worked out at 660 nM. Against the preceding molecule, the IC50 is about 260-fold higher.

The assay is the same for the next values; noted with them: Tpl2/Cot kinase, GST-MEK1 substrate, 50 uM ATP, 1 h at 30° C.; Table 2.
For the molecule `N#Cc1cnc2c(Cl)cc(NC[C@H]3C[C@H](OCc4cccnc4)CO3)cc2c1Nc1ccc(F)c(Cl)c1` [Example 939], the IC50 is above 3000 nM.

In turn, `N#Cc1cnc2c(Cl)cc(N(Cc3cn(C4CCN(C5CCC5)CC4)nn3)C3CCC3)cc2c1Nc1ccc(F)c(Cl)c1` [Example 1029] gave an IC50 of 290 nM. As for `CCN1CCC(O)(c2cncc(CNc3cc(Cl)c4ncc(C#N)c(Nc5ccc(F)c(Cl)c5)c4c3)c2)CC1` [Example 1034], half-maximal inhibition (IC50) was put at 400 nM. This IC50 and that of the molecule before are within 1.5-fold of each other. In the case of `N#Cc1cnc2c(Cl)cc(NCc3cn(C4CCNCC4)nn3)cc2c1NC1CCOCC1` [Example 987], the IC50 came out at 1100 nM.
